Measured values taken from paper PMC3412845, “Waking Action of Ursodeoxycholic Acid (UDCA) Involves Histamine and GABAA Receptor Block” (PLoS ONE, 2012).

Experiments:
[1] = tested on: GABAA receptors of HDC−/− TMN neurons; assay: GABA-evoked whole-cell currents in TMN neurons from HDC−/− mice; format: cell-based, mouse; conditions: read-out: IC50 of inhibition of maximal GABA (0.5 mM) responses; adult HDC−/− mice, n = 5
Procedure: (§1) Recordings from histaminergic neurons in male Wistar rat (22–26 day old) or 30–60 day old mouse (SV129, histidine decarboxylase deficient HDC−/− or their wild type littermates) hypothalamic slices were performed as previously described. Slices were obtained between 9 and 11 a.m. In the beginning of whole-cell voltage clamp recordings TMN neurons were identified with the help of DIC microscopy and electrophysiological criteria as previously described. Inhibitory postsynaptic currents (IPSCs) were evoked by local stimulation through a bipolar stainless-steel stimulating electrode (50 µm; WPI, UK). The stimulation of axonal endings coming to TMN from ventrolateral preoptic area (VLPO) was done as described in [22]. […] Individual neurons were separated by vibrodissociation after brief preincubation with papain from the hypothalamic slices of mice or rats and identified as TMN neurons according to their size and shape. Identification was confirmed post hoc with the single-cell RT-PCR (all data presented in the manuscript were obtained from histidine decarboxylase-expressing neurons), [40]. TMN neurons from HDC−/− mice were identified by the expression of peripherin [16]. Whole-cell voltage-clamp recordings from isolated neurons were done with an EPC-9 amplifier and TIDA for Windows (HEKA, Lambrecht, Germany) at room temperature. Membrane potentials were not corrected for liquid junction potential (5.6 mV, calculated with LJPCalc, Barry, 1994). The intracellular solution was composed of (in mM) 140 KCl, 2 MgCl2, 0.5 CaCl2, 5 EGTA, 2 ATP and 10 HEPES (pH 7.2 adjusted with NaOH). A fast perfusion technique was used for application of ligands and modulators of fast ionotropic receptors, [41]. […] EC50 is the ligand concentration producing a half-maximal response, [ligand] is ligand concentration, and n is the Hill slope. Hill coefficients were obtained from the slope of the log/log plot of the dose-response curves. […] Steady-state amplitudes of the responses were used for the construction of dose-response plots if not mentioned otherwise.

[2] = target: T1, β3 homopentameric GABAA receptors (Homo sapiens, UniProt P28472); assay: Block of spontaneous openings of β3 homopentameric receptors (outward shift of baseline current); format: cell-based
T1 construct: expressed in transfected cells; host or cells: HEK293
Procedure: (§2) HEK 293 cells were obtained from DSM (Deutsche Sammlung von Mikroorganismen und Zellkulturen GmbH, DSM, Braunschweig). They were grown and maintained according to published standard protocols. Briefly, cells were grown in minimal essential medium supplemented with 10% fetal bovine serum, 100units/ml penicillin and streptomycin and 2 mM L-glutamine and splitted once per week. Semiconfluent cells were transfected on the third day after splitting with the help of Lipofectamine 2000 (Invitrogen), recordings were done 48–72 hrs after transfection.
(§3) The GABAAR subunit cDNAs, generously donated by G.Gisselmann (rat α1, mouse γ2L, rat β1, β2 and human β3 [26]) and J.H. Steinbach (rat α1V256S [28] and rat α1Q241L [44]), were subcloned into pcDNA3 (Invitrogen, Karlsruhe, Germany) and applied in a ratio 1∶1∶1 for the α1βxγ2L receptor and 1∶1 for α1β3 or β3γ2L receptors. […] For each receptor type patch clamp recordings were obtained from at least three separate transfections. Whole-cell patch clamp recordings were done in a similar extracellular solution as for the native cells (see above) except that the concentration of MgCl2 was reduced to 1.2 mM. Intracellular electrodes contained 140 mM CsCl (instead of KCl), pH adjusted with CsOH. The voltage was held at −40 mV.

[3] = target: T2, α1Q241L mutant α1β2γ2L GABAA receptors (UniProt P22723+P62813+P63138, Q268L); assay: Patch-clamp of mutant α1Q241L-containing α1β2γ2L GABAAR in HEK293 cells; format: cell-based, rat α1Q241L, rat β2, mouse γ2L; conditions: UDCA 100 µM, 500 µM GABA, n = 5
T2 construct: expressed in transfected cells; host or cells: HEK293
Procedure: as §2, §3

β3γ2L GABAA receptors = target: T3, β3γ2L GABAA receptors (UniProt P22723+P28472); assay: Patch-clamp of recombinant β3γ2L receptors in HEK293 cells, histamine-evoked currents; format: cell-based, human β3, mouse γ2L; conditions: histamine 5 mM
T3 construct: expressed in transfected cells; host or cells: HEK293
Procedure: as §2, §3

[4] = target: T4, α1V256Sβ2γ2L GABAA receptors (UniProt P22723+P62813+P63138, V283S); assay: Patch-clamp of mutant α1V256Sβ2γ2L GABAAR in HEK293 cells; format: cell-based, rat α1V256S, rat β2, mouse γ2L
T4 construct: expressed in transfected cells; host or cells: HEK293
Procedure: as §2, §3

TMN neurons = assay: Firing of TMN neurons recorded in hypothalamic slices; format: cell-based, mouse; conditions: UDCA 100 µM, n = 10
Procedure: Recordings from histaminergic neurons in male Wistar rat (22–26 day old) or 30–60 day old mouse (SV129, histidine decarboxylase deficient HDC−/− or their wild type littermates) hypothalamic slices were performed as previously described. Slices were obtained between 9 and 11 a.m. In the beginning of whole-cell voltage clamp recordings TMN neurons were identified with the help of DIC microscopy and electrophysiological criteria as previously described. Inhibitory postsynaptic currents (IPSCs) were evoked by local stimulation through a bipolar stainless-steel stimulating electrode (50 µm; WPI, UK). The stimulation of axonal endings coming to TMN from ventrolateral preoptic area (VLPO) was done as described in [22]. […] Individual neurons were separated by vibrodissociation after brief preincubation with papain from the hypothalamic slices of mice or rats and identified as TMN neurons according to their size and shape. Identification was confirmed post hoc with the single-cell RT-PCR (all data presented in the manuscript were obtained from histidine decarboxylase-expressing neurons), [40]. TMN neurons from HDC−/− mice were identified by the expression of peripherin [16]. […] Membrane potentials were not corrected for liquid junction potential (5.6 mV, calculated with LJPCalc, Barry, 1994). […]

[5] = target: T5, homopentameric β3 GABAA receptors (Homo sapiens, UniProt P28472); assay: Patch-clamp of β3 homopentameric receptors in HEK293 cells, histamine-evoked currents; format: cell-based; conditions: histamine 5 mM
T5 construct: expressed in transfected cells; host or cells: HEK293
Procedure: as §2, §3

α1β1γ2L GABAA receptors = target: T6, α1β1γ2L GABAA receptors (UniProt P15431+P22723+P62813); assay: Patch-clamp of recombinant α1β1γ2L GABAAR in HEK293 cells; format: cell-based, rat α1, rat β1, mouse γ2L
T6 construct: expressed in transfected cells; host or cells: HEK293
Procedure: as §2, §3

TGR5 = tested on: TGR5; design: method as in PMID 12524422; conditions: cited from earlier work
α1β3 GABAA receptors = target: T7, α1β3 GABAA receptors (UniProt P28472+P62813); assay: Patch-clamp of recombinant α1β3 GABAAR in HEK293 cells; format: cell-based, rat α1, human β3
T7 construct: expressed in transfected cells; host or cells: HEK293
Procedure: as §2, §3

[6] = tested on: TMN neurons (eIPSCs and sIPSCs); assay: Spontaneous and evoked IPSCs in TMN neurons in brain slices; format: cell-based, rat
Procedure: as §1

[7] = tested on: cultured hypothalamic neurons; assay: Microelectrode array (MEA) recordings of cultured hypothalamic neurons; format: cell-based, mouse
Procedure: Primary dissociated cultures of posterior hypothalamus were prepared from newborn mice according to the protocols previously described, [43]. […] Recordings were done between 11th-21st day after plating. […] Signals from all 60 electrodes were simultaneously sampled at 25 kHz, visualized and stored using the standard software […] provided by Multi Channel Systems. Spike detection and analysis was performed offline with the software […] (RESULT Medizinische […], Germany), which uses the agreement coefficient “Cohen's kappa” (κ) to assess the degree of spike and burst synchrony for selected pairs of electrodes. […] In order to describe the distribution of kappa across the whole MEA, we calculated the mean of all kappa-values obtained for pairs of “active” electrodes. At the beginning of experiments the basal medium was replaced by a magnesium-free HEPES-based recording solution (see above) and measurements were started after a 20 min adaptation phase. Every measurement comprised three recordings - control, test substance and washout (second control) - each two minutes long and separated by an intermediate period of 30 seconds.

[8] = tested on: isolated TMN neurons (sIPSCs); assay: sIPSCs in acutely isolated and cultured neurons; format: cell-based
Procedure: as §1

[9] = read-out: IC50 of block of histamine-evoked currents

T1 sequence (P28472 26-473): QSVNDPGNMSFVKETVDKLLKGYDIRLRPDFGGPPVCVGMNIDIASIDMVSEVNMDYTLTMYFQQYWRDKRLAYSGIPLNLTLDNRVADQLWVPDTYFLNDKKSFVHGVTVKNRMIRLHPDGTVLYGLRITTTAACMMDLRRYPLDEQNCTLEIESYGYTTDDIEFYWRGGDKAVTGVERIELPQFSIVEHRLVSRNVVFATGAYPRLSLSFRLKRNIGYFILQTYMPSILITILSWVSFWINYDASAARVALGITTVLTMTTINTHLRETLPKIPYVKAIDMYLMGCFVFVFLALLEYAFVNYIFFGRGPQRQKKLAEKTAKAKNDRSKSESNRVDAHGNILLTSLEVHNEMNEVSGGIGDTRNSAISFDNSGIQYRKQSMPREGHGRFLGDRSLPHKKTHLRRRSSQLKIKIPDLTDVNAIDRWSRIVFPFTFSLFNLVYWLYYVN
T3 sequence (P28472 26-473): as above
T3 sequence (P22723 39-474): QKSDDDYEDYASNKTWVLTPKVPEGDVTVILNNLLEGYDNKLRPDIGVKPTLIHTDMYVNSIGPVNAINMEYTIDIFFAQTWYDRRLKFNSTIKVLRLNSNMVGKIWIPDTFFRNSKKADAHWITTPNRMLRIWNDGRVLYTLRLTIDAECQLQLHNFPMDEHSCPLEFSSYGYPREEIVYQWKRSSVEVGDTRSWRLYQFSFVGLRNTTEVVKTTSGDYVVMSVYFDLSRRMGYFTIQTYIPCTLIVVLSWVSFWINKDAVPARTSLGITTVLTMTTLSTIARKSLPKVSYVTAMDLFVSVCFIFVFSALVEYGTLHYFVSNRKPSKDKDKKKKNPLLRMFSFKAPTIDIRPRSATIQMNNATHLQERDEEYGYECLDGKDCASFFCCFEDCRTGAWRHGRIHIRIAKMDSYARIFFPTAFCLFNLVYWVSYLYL
T5 sequence (P28472 26-473): as the sequence (P28472 26-473) above
T4 sequence (P62813 28-455 V283S): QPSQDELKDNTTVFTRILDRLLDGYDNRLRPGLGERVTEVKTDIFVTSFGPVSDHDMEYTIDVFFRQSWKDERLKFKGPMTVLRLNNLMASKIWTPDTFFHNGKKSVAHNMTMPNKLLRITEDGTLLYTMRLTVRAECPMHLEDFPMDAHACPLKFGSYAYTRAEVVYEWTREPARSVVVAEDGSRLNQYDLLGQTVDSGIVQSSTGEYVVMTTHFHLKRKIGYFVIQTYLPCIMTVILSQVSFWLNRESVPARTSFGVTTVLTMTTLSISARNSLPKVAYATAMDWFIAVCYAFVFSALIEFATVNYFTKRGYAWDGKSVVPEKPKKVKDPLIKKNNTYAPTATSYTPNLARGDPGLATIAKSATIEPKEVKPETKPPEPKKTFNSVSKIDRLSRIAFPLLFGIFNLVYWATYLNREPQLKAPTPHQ
T4 sequence (P63138 25-474 limits assumed): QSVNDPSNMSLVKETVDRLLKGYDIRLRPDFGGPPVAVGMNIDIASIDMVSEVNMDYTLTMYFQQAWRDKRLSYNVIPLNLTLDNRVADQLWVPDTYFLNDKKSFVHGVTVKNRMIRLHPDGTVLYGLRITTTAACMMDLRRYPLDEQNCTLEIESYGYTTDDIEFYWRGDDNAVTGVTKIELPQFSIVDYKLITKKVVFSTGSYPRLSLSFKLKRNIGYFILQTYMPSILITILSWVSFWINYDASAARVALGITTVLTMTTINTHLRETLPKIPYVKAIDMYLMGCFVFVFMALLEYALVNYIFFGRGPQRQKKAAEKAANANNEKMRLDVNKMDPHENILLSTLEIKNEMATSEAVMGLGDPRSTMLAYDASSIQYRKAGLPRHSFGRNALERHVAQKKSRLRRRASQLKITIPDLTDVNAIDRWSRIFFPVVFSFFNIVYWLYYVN
T4 sequence (P22723 39-474): as the sequence (P22723 39-474) above
T7 sequence (P62813 28-455): as the sequence (P62813 28-455 V283S) above, with S256V counted along it
T7 sequence (P28472 26-473): as the sequence (P28472 26-473) above
T2 sequence (P62813 28-455 Q268L): as the sequence (P62813 28-455 V283S) above, with Q241L, S256V counted along it
T2 sequence (P63138 25-474 limits assumed): as the sequence (P63138 25-474 limits assumed) above
T2 sequence (P22723 39-474): as the sequence (P22723 39-474) above
T6 sequence (P62813 28-455): as the sequence (P62813 28-455 V283S) above, with S256V counted along it
T6 sequence (P15431 26-474): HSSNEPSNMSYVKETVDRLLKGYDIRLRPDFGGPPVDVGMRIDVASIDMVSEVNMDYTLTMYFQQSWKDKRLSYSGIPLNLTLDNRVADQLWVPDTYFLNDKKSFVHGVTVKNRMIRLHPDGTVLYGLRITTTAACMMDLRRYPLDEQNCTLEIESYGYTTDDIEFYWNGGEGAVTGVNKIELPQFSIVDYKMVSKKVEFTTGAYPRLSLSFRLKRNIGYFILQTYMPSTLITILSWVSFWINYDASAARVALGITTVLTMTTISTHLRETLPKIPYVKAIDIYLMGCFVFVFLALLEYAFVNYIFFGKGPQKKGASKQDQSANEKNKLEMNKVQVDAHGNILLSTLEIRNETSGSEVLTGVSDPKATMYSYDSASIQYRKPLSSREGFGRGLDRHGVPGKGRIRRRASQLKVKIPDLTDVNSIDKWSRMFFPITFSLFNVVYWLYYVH
T6 sequence (P22723 39-474): as the sequence (P22723 39-474) above

In the case of `C[C@H](CCC(=O)O)[C@H]1CC[C@H]2[C@@H]3[C@@H](O)C[C@@H]4C[C@H](O)CC[C@]4(C)[C@H]3CC[C@]12C` [UDCA, ursodeoxycholic acid], the IC50 [1] is reported as 90 ± 5 µM, the “additivity of outward currents of maximal UDCA (300, 600 µM) and picrotoxin (25 µM)” value [2] is reported as “not additive” and the IC50 ([2]; roughly estimated, read-out: half-maximal effect on outward shift of baseline current) is reported as roughly 100 µM. The “maximal steady-state GABA current” value [3] was 54±2 % of control, the “Hill coefficient nH of UDCA block” value (β3γ2L GABAA receptors) was 0.62 and the IC50 (β3γ2L GABAA receptors; [9]) was 232 ± 66 µM. For the same molecule, the “relative amplitude of maximal GABA-responses” value ([4]; UDCA 100 µM, n = 5) was 87±1 % of control, the IC50 ([4]; n = 4) was 330 ± 41 µM and the “firing at the end of UDCA application” value (TMN neurons) was 86±5 % of control. For the same molecule, the “Hill coefficient nH of UDCA block” value [5] was 0.8, the IC50 [5, 9] was 7.4 ± 2 µM and the IC50 (α1β1γ2L GABAA receptors) was 96 ± 17 µM. For the same molecule, the “sensitivity of TGR5 to UDCA” value (TGR5) was “rather insensitive”, the “Hill coefficient nH of UDCA block” value (α1β3 GABAA receptors; maximal GABA) was 0.65 and the IC50 (α1β3 GABAA receptors; read-out: IC50 of block of GABA-evoked steady-state currents) was 81 µM. The “effect on eIPSCs and sIPSCs” value ([6]; 30 µM) was “ineffective”, the “amplitude of eIPSCs and sIPSCs” value ([6]; 100 µM) was “significantly inhibited the amplitude of eIPSCs and sIPSCs in less than half of the neurons” and the “amplitude and decay time of eIPSCs and sIPSCs” value ([6]; 300 µM, all investigated neurons) was “significant reductions”. The “synchronicity of firing within the hypothalamic network (Cohen's kappa)” value ([7]; UDCA) was “increased”, the firing frequency ([7]; UDCA 10, 30 or 100 µM) was “not affected” and the “effect on synchronization in the presence of gabazine” value ([7]; with GABAA receptor antagonist gabazine) was “abolished”. The “UDCA-induced synchronization of firing with mifepristone and spironolactone” value ([7]; with mifepristone 10 µM and spironolactone 10 µM) was “not affected”, the “decay kinetics of sIPSCs” value ([8]; 10 µM) was “significantly accelerated the decay kinetics of sIPSCs in some” and the “decay kinetics of sIPSCs” value ([8]; 30 µM) was “significantly reducing decay kinetics in all investigated neurons”.
